PMC11420878, “Labeling of CC Chemokine Receptor 2 with a Versatile Intracellular Allosteric Probe” (ACS Chemical Biology, 2024)

Experiments:
Type in all cases: binding
[1] = target: T1, CC chemokine receptor 2 (CCR2) (Homo sapiens, UniProt P41597); assay: [3H]CCR2-RA-[R] displacement, […] h preincubation; in-gel fluorescence labeling; design: CCR2 stably expressed in U2OS membranes; HA-CCR2 in HEK293T membranes
[2] = target: T1, CC chemokine receptor 2 (CCR2); assay: [3H]CCR2-RA-[R] displacement (Ki shift), in-gel fluorescence labeling, pull-down proteomics; design: CCR2 stably expressed in U2OS membranes; HA-CCR2 in HEK293T membranes
[3] = target: T1, CC chemokine receptor 2 (CCR2); assay: [3H]CCR2-RA-[R] displacement, […] h preincubation; design: CCR2 stably expressed in U2OS membranes

T1 sequence (P41597 whole entry): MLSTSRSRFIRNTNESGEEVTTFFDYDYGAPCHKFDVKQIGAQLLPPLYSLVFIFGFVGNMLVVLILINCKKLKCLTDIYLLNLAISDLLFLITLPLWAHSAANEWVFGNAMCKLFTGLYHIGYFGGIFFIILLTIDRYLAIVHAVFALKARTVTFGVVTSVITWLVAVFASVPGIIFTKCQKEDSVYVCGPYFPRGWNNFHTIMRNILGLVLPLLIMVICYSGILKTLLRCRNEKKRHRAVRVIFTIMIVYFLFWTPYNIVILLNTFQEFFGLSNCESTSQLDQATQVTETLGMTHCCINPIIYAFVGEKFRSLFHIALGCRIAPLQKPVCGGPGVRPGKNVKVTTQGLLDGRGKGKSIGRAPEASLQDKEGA

Row | Ki [1] [pM] | Ki [3] [pM] | further results | SMILES
1 | ~500 | – | – | C#CCOc1cc(NC(=O)C=C)ccc1Oc1ccc(Cl)cc1NS(=O)(=O)c1ccc(Cl)c(C(F)(F)F)c1 [6a]
2 | ~500 | – | – | C#CCOCCOc1cc(NC(=O)C=C)ccc1Oc1ccc(Cl)cc1NS(=O)(=O)c1ccc(Cl)c(C(F)(F)F)c1 [6b]
3 | – | – | Ki [2]: ~500 pM | C#CCOCCOCCOc1cc(NC(=O)C=C)ccc1Oc1ccc(Cl)cc1NS(=O)(=O)c1ccc(Cl)c(C(F)(F)F)c1 [6c, probe 6c]
4 | – | ~1300 | – | C#CCOc1cc(NC(=O)CCSC#N)ccc1Oc1ccc(Cl)cc1NS(=O)(=O)c1ccc(Cl)c(C(F)(F)F)c1 [8a]
5 | – | ~1300 | – | C#CCOCCOc1cc(NC(=O)CCSC#N)ccc1Oc1ccc(Cl)cc1NS(=O)(=O)c1ccc(Cl)c(C(F)(F)F)c1 [8b]
6 | – | ~1300 | – | C#CCOCCOCCOc1cc(NC(=O)CCSC#N)ccc1Oc1ccc(Cl)cc1NS(=O)(=O)c1ccc(Cl)c(C(F)(F)F)c1 [8c]
